Data on 3 compounds can be found in patent US20080255137A1 (Arena Pharmaceuticals, Inc., priority 2004, published 2008).

In one experiment the target is T1, human 5HT2C receptor (Homo sapiens, UniProt P28335).
T1 construct: expressed in transfected cells; host or cells: HEK293
T1 sequence (P28335 33-458): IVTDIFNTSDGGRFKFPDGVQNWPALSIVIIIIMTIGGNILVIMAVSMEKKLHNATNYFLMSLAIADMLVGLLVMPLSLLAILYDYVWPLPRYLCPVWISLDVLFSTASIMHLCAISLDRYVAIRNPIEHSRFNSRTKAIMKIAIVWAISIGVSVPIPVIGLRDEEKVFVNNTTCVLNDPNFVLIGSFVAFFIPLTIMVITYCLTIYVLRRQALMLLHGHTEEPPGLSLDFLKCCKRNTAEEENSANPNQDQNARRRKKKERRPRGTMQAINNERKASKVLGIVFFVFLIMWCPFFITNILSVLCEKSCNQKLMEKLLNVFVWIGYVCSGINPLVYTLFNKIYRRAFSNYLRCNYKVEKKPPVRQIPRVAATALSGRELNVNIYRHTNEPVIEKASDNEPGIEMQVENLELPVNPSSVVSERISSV
Briefly: Intracellular IP3 (IP) accumulation assay, 5HT2C. It counts as cell-based. The conditions noted are these: HEK293 cells transfected with human 5HT2C receptor cDNA. Here is the method:
HEK293 cells were transfected in 15 cm sterile dishes with or without (control) 16 ug of human 5HT2C receptor cDNA [for example see, Saltzman, A. G., et al. Biochem. Biophys. Res. Commun. 181, 1469-1478 (1991)] using 25 ul of lipofectamine. Cells were then incubated for 3-4 hours at 37° C./5% CO2 and then transfection media was removed and replaced with 100 ul of DMEM. Cells were then plated onto 100 cm sterile dishes. The next day cells were plated into 96 well PDL microtiter plates at a density of 55K/0.2 mL. Six hours latter, media was exchanged with [^3H]inositol (0.25 uCi/well) in inositol free DMEM and plates were incubated at 37° C./5% CO2 overnight. The next day, wells were aspirated and 200 ul of DMEM containing test compound, 10 uM pargyline, and 10 mM LiCl was added to appropriate wells. Plates were then incubated at 37° C./5% CO2 for three hours followed aspiration and by addition of fresh ice cold stop solution (1M KOH, 19 mM Na-borate, 3.8 mM EDTA) to each well. Plates were kept on ice for 5-10 min and the wells were neutralized by addition of 200 ul of fresh ice cold neutralization solution (7.5% HCl). Plates were then frozen until further processing is desired. The lysate was then transferred into 1.5 mL Eppendorf tubes and 1 mL of chloroform/methanol (1:2) was added/tube. […]

Another experiment has as its target 5HT2A receptor (Homo sapiens, UniProt P28223). Put plainly: EC50 against the 5HT2A receptor (selectivity). Type of experiment: cell-based.
The next experiment has as its target 5HT2B receptor (Homo sapiens, UniProt P41595). Briefly: Activity against the 5HT2B receptor (selectivity). Type of experiment: cell-based.
In a further experiment the test system is guinea pigs. The conditions noted are these: repeat administration; cited from earlier work.

Chain of 5HT2B receptor (P41595 whole entry): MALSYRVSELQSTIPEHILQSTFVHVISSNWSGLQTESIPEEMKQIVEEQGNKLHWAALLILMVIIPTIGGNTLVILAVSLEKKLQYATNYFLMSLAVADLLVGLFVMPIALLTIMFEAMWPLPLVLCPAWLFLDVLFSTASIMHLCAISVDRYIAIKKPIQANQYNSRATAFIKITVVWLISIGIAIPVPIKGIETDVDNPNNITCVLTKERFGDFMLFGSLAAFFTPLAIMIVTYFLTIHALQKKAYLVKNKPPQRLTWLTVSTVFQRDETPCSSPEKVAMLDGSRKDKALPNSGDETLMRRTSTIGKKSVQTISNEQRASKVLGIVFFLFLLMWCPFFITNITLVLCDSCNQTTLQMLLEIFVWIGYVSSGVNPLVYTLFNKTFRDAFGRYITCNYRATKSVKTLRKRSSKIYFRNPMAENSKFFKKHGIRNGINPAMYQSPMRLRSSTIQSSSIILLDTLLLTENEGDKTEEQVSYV
Chain of 5HT2A receptor (P28223 whole entry): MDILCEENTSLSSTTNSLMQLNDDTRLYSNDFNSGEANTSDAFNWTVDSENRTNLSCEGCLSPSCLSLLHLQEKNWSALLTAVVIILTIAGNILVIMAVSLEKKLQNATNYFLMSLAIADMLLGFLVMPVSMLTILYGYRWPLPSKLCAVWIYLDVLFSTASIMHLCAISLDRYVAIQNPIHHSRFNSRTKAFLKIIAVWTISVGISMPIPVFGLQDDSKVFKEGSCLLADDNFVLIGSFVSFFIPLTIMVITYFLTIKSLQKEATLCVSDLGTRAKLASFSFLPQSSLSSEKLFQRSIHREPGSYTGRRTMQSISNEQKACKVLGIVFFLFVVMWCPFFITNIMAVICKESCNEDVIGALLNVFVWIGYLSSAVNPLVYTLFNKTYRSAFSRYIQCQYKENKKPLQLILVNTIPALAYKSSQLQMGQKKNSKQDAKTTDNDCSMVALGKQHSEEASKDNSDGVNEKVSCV

The EC50 is the concentration that produces a half-maximal response. Compound `C[C@@H]1CNCCN1c1cc(F)cc(-c2ccsc2)c1` [Compound 1] displayed an EC50 at human 5HT2C receptor of 2 nM.

Regarding `C[C@@H]1CNCCN1c1cccc(-c2ccccc2)c1F` [Compound 10, (R)-1-(2-Fluoro-biphenyl-3-yl)-2-methyl-piperazine], the values for the EC50 on 5HT2A receptor and at human 5HT2C receptor were around 1700 nM and 5 nM, respectively. Also, the “activity against the 5HT2B receptor” value on 5HT2B receptor is “essentially inactive”.

Take `C[C@H](N)Cc1cccc(C(F)(F)F)c1` [DEXNOR, dexnorfenfluramine]: in the experiment with guinea pigs, the “amyloid precursor protein (APPs) secretion” value is reported as “stimulated” and the “levels of Aβ production in vivo” value is reported as “reducing”.
